Assay results published in patent US9193720B2, “Pyridin-3-yl acetic acid derivatives as inhibitors of human immunodeficiency virus replication” (priority 2014, dated 2015).
pEC50: −log10 of the molar value.

Test system: NL-RLuc virus
Test: Inhibition of HIV Replication (NL-RLuc luciferase reporter virus in MT-2 cells)
Assay type: cell-based
Details: Human immunodeficiency virus 1, MT2, 120 h
Description: Inhibition of HIV Replication:
A recombinant NL-RLuc proviral clone was constructed in which a section of the nef gene from NL4-3 was replaced with the Renilla Luciferase gene. This virus is fully infectious and can undergo multiple cycles of replication in cell culture. In addition, the luciferous reporter provides a simple and easy method for quantitating the extent of virus growth and consequently, the antiviral activity of test compounds. The plasmid pNLRLuc contains the proviral NL-Rluc DNA cloned into pUC18 at the PvuII site. The NL-RLuc virus was prepared by transfection of 293T cells with the plasmid pNLRLuc. Transfections were performed using the LipofectAMINE PLUS kit from Invitrogen (Carlsbad, Calif.) according to the manufacturer and the virus generated was titered in MT-2 cells. For susceptibility analyses, the titrated virus was used to infect MT-2 cells in the presence of compound, and after 5 days of incubation, cells were processed and quantitated for virus growth by the amount of expressed luciferase. Assay media was RPMI 1640 supplemented with 10% heat inactivated fetal bovine serum (FBS), 100 units/ml penicillin G/100 units/ml streptomycin, 10 mM HEPES buffer pH 7.55 and 2 mM L-glutamine. The results from at least 2 experiments were used to calculate the EC50 values. Luciferase was quantitated using the Dual Luciferase kit from Promega (Madison, Wis.). Susceptibility of viruses to compounds was determined by incubation in the presence of serial dilutions of the compound. The 50% effective concentration (EC50) was calculated by using the exponential form of the median effect equation where (Fa)=1/[1+(ED50/drug conc.)^m] (Johnson V A, Byington R T. Infectivity Assay. In Techniques in HIV Research. ed. Aldovini A, Walker B D. 71-76. New York: Stockton Press. 1990).

Cc1nc(C)c([C@H](OC(C)(C)C)C(=O)O)c(N2CCC(C)(C)CC2)c1-c1ccc(OC(C)Cc2ccc(F)cc2)cc1 (stereo partly drawn) [Example 22, (2S)-2-(tert-Butoxy)-2-(4-(4,4-dimethylpiperidin-1-yl)-5-(4-((1-(4-fluorophenyl)propan-2-yl)oxy)phenyl)-2,6-dimethylpyridin-3-yl)acetic acid]
pEC50: 8.15

Cc1nc(C)c([C@H](OC(C)(C)C)C(=O)O)c(N2CCC(C)(C)CC2)c1-c1ccc(OCCc2ccc(F)cc2F)cc1 [Example 23, (S)-2-(tert-butoxy)-2-(5-(4-(2,4-difluorophenethoxy)phenyl)-4-(4,4-dimethylpiperidin-1-yl)-2,6-dimethylpyridin-3-yl)acetic acid]
pEC50: 8.30

Cc1nc(C)c([C@H](OC(C)(C)C)C(=O)O)c(N2CCC(C)(C)CC2)c1-c1ccc(OCCc2ccc(F)c(F)c2)cc1 [Example 24, (S)-2-(tert-butoxy)-2-(5-(4-(3,4-difluorophenethoxy)phenyl)-4-(4,4-dimethylpiperidin-1-yl)-2,6-dimethylpyridin-3-yl)acetic acid]
pEC50: 8.52

Cc1nc(C)c([C@H](OC(C)(C)C)C(=O)O)c(N2CCC(C)(C)CC2)c1-c1ccc(OCCc2cc(F)ccc2F)cc1 [Example 25, (S)-2-(tert-butoxy)-2-(5-(4-(2,5-difluorophenethoxy)phenyl)-4-(4,4-dimethylpiperidin-1-yl)-2,6-dimethylpyridin-3-yl)acetic acid]
pEC50: 8.52

Cc1nc(C)c([C@H](OC(C)(C)C)C(=O)O)c(N2CCC(C)(C)CC2)c1-c1ccc(OCCc2ccc(Cl)cc2)cc1 [Example 26, (S)-2-(tert-butoxy)-2-(5-(4-(4-chlorophenethoxy)phenyl)-4-(4,4-dimethylpiperidin-1-yl)-2,6-dimethylpyridin-3-yl)acetic acid]
pEC50: 7.77

Cc1nc(C)c([C@H](OC(C)(C)C)C(=O)O)c(N2CCC(C)(C)CC2)c1-c1ccc(OCCc2ccc(Cl)c(F)c2)cc1 [Example 27, (S)-2-(tert-butoxy)-2-(5-(4-(4-chloro-3-fluorophenethoxy)phenyl)-4-(4,4-dimethylpiperidin-1-yl)-2,6-dimethylpyridin-3-yl)acetic acid]
pEC50: 7.92

Cc1ccc(CCOc2ccc(-c3c(C)nc(C)c([C@H](OC(C)(C)C)C(=O)O)c3N3CCC(C)(C)CC3)cc2)cc1 [Example 28, (S)-2-(tert-butoxy)-2-(4-(4,4-dimethylpiperidin-1-yl)-2,6-dimethyl-5-(4-(4-methylphenethoxy)phenyl)pyridin-3-yl)acetic acid]
pEC50: 7.72

Cc1nc(C)c([C@H](OC(C)(C)C)C(=O)O)c(N2CCC(C)(C)CC2)c1-c1ccc(OCC(C)(C)c2ccc(Cl)cc2)cc1 [Example 29, (S)-2-(tert-butoxy)-2-(5-(4-(2-(4-chlorophenyl)-2-methylpropoxy)phenyl)-4-(4,4-dimethylpiperidin-1-yl)-2,6-dimethylpyridin-3-yl)acetic acid]
pEC50: 7.82

Cc1nc(C)c([C@H](OC(C)(C)C)C(=O)O)c(N2CCC(C)(C)CC2)c1-c1ccc(OCCc2ccc3ccccc3c2)cc1 [Example 30, (S)-2-(tert-butoxy)-2-(4-(4,4-dimethylpiperidin-1-yl)-2,6-dimethyl-5-(4-(2-(naphthalen-2-yl)ethoxy)phenyl)pyridin-3-yl)acetic acid]
pEC50: 8.22

Cc1nc(C)c([C@H](OC(C)(C)C)C(=O)O)c(N2CCC(C)(C)CC2)c1-c1ccc(OCCc2ccc(OCc3ccccc3)cc2)cc1 [Example 31, (S)-2-(5-(4-(4-(benzyloxy)phenethoxy)phenyl)-4-(4,4-dimethylpiperidin-1-yl)-2,6-dimethylpyridin-3-yl)-2-(tert-butoxy)acetic acid]
pEC50: 7.33

Cc1nc(C)c([C@H](OC(C)(C)C)C(=O)O)c(N2CCC(C)(C)CC2)c1-c1ccc(OCC(C)c2ccc(F)cc2)cc1 (stereo partly drawn) [Example 32, (2S)-2-(tert-butoxy)-2-(4-(4,4-dimethylpiperidin-1-yl)-5-(4-(2-(4-fluorophenyl)propoxy)phenyl)-2,6-dimethylpyridin-3-yl)acetic acid]
pEC50: 7.96

Cc1nc(C)c([C@H](OC(C)(C)C)C(=O)O)c(N2CCC(C)(C)CC2)c1-c1ccc(OCCc2ccccn2)cc1 [Example 33, (S)-2-(tert-butoxy)-2-(4-(4,4-dimethylpiperidin-1-yl)-2,6-dimethyl-5-(4-(2-(pyridin-2-yl)ethoxy)phenyl)pyridin-3-yl)acetic acid]
pEC50: 9.00

CO[C@H](COc1ccc(-c2c(C)nc(C)c([C@H](OC(C)(C)C)C(=O)O)c2N2CCC(C)(C)CC2)cc1)c1ccccc1 [Example 34, (S)-2-(tert-butoxy)-2-(4-(4,4-dimethylpiperidin-1-yl)-5-(4-((S)-2-methoxy-2-phenylethoxy)phenyl)-2,6-dimethylpyridin-3-yl)acetic acid]
pEC50: 7.96

CO[C@@H](COc1ccc(-c2c(C)nc(C)c([C@H](OC(C)(C)C)C(=O)O)c2N2CCC(C)(C)CC2)cc1)c1ccccc1 [Example 35, (S)-2-(tert-butoxy)-2-(4-(4,4-dimethylpiperidin-1-yl)-5-(4-((R)-2-methoxy-2-phenylethoxy)phenyl)-2,6-dimethylpyridin-3-yl)acetic acid]
pEC50: 7.89

COc1cccc(CCOc2ccc(-c3c(C)nc(C)c([C@H](OC(C)(C)C)C(=O)O)c3N3CCC(C)(C)CC3)cc2)c1 [Example 36, (S)-2-(tert-butoxy)-2-(4-(4,4-dimethylpiperidin-1-yl)-5-(4-(3-methoxyphenethoxy)phenyl)-2,6-dimethylpyridin-3-yl)acetic acid]
pEC50: 8.70

Cc1nc(C)c([C@H](OC(C)(C)C)C(=O)O)c(N2CCC(C)(C)CC2)c1-c1ccc(OCCc2ccncc2)cc1 [Example 37, (S)-2-(tert-butoxy)-2-(4-(4,4-dimethylpiperidin-1-yl)-2,6-dimethyl-5-(4-(2-(pyridin-4-yl)ethoxy)phenyl)pyridin-3-yl)acetic acid]
pEC50: 9.00

Cc1nc(C)c([C@H](OC(C)(C)C)C(=O)O)c(N2CCC(C)(C)CC2)c1-c1ccc(OCCc2cccc3ccccc23)cc1 [Example 38, (S)-2-(tert-butoxy)-2-(4-(4,4-dimethylpiperidin-1-yl)-2,6-dimethyl-5-(4-(2-(naphthalen-1-yl)ethoxy)phenyl)pyridin-3-yl)acetic acid]
pEC50: 8.22

Cc1nc(C)c([C@H](OC(C)(C)C)C(=O)O)c(N2CCC(C)(C)CC2)c1-c1ccc(OCCc2ccccc2)cc1 [Example 39, (S)-2-(tert-butoxy)-2-(4-(4,4-dimethylpiperidin-1-yl)-2,6-dimethyl-5-(4-phenethoxyphenyl)pyridin-3-yl)acetic acid]
pEC50: 8.70

Cc1ncsc1CCOc1ccc(-c2c(C)nc(C)c([C@H](OC(C)(C)C)C(=O)O)c2N2CCC(C)(C)CC2)cc1 [Example 40, (S)-2-(tert-butoxy)-2-(4-(4,4-dimethylpiperidin-1-yl)-2,6-dimethyl-5-(4-(2-(4-methylthiazol-5-yl)ethoxy)phenyl)pyridin-3-yl)acetic acid]
pEC50: 9.00

Cc1nc(C)c([C@H](OC(C)(C)C)C(=O)O)c(N2CCC(C)(C)CC2)c1-c1ccc(OCCc2cccnc2)cc1 [Example 41, (S)-2-(tert-butoxy)-2-(4-(4,4-dimethylpiperidin-1-yl)-2,6-dimethyl-5-(4-(2-(pyridin-3-yl)ethoxy)phenyl)pyridin-3-yl)acetic acid]
pEC50: 9.00

Cc1nc(CCOc2ccc(-c3c(C)nc(C)c([C@H](OC(C)(C)C)C(=O)O)c3N3CCC(C)(C)CC3)cc2)cs1 [Example 42, (S)-2-(tert-butoxy)-2-(4-(4,4-dimethylpiperidin-1-yl)-2,6-dimethyl-5-(4-(2-(2-methylthiazol-4-yl)ethoxy)phenyl)pyridin-3-yl)acetic acid]
pEC50: 8.40

Cc1nc(C)c([C@H](OC(C)(C)C)C(=O)O)c(N2CCC(C)(C)CC2)c1-c1ccc(OCc2cncs2)cc1 [Example 43, (S)-2-(tert-butoxy)-2-(4-(4,4-dimethylpiperidin-1-yl)-2,6-dimethyl-5-(4-(thiazol-5-ylmethoxy)phenyl)pyridin-3-yl)acetic acid]
pEC50: 7.85

Cc1nc(C)c(COc2ccc(-c3c(C)nc(C)c([C@H](OC(C)(C)C)C(=O)O)c3N3CCC(C)(C)CC3)cc2)s1 [Example 44, (S)-2-(tert-butoxy)-2-(4-(4,4-dimethylpiperidin-1-yl)-5-(4-((2,4-dimethylthiazol-5-yl)methoxy)phenyl)-2,6-dimethylpyridin-3-yl)acetic acid]
pEC50: 7.92

Cc1nc(-c2ccccc2)sc1COc1ccc(-c2c(C)nc(C)c([C@H](OC(C)(C)C)C(=O)O)c2N2CCC(C)(C)CC2)cc1 [Example 45, (S)-2-(tert-butoxy)-2-(4-(4,4-dimethylpiperidin-1-yl)-2,6-dimethyl-5-(4-((4-methyl-2-phenylthiazol-5-yl)methoxy)phenyl)pyridin-3-yl)acetic acid]
pEC50: 7.54

COc1cccc(CCOc2ccc(-c3c(C)nc(C)c([C@H](OC(C)(C)C)C(=O)O)c3N3CCC(C)(C)CC3)cc2OCCc2cccc(OC)c2)c1 [Example 46, (S)-2-(5-(3,4-bis(3-methoxyphenethoxy)phenyl)-4-(4,4-dimethylpiperidin-1-yl)-2,6-dimethylpyridin-3-yl)-2-(tert-butoxy)acetic acid]
pEC50: 7.85
